Laboratory results from patent US20260201008A1, “SECRETIN-DERIVED GLP1R SELECTIVE AGONISTS” (GUBRA A/S, priority 2023, published 2026).
Read-outs that look alike come from different tables or passages of the source. Numbered stars: 1 amine (or outer) side, 2 acyl side, 3 side chain; on linkers, the order of the positions; unused ones are H or OH. Square brackets hold non-standard residues; d marks the D form. Side chains are listed from the residue outwards. Peptide text beside a SMILES is read from it. * marks the point of attachment. C20 diacid = O=C(O)CCCCCCCCCCCCCCCCCCC(=O)*; γGlu = O=C(O)[C@H](CCC(=O)[*:2])N[*:1]; AEEA = NCCOCCOCC(=O)O; Aib = CC(C)(N)C(=O)O

Columns and labels:
[1] = Turbidity of crude library peptides (absorbance at 600 nm); assay type: physicochemical; settings: Physical stability of peptides
Method in brief: (§1)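 Crude peptides at 267 μM in 50 mM sodium acetate pH 4.0 or 50 mM sodium phosphate pH 7.0, pre-incubated 1-2 h at room temperature, then 4 μM final ThT added. Turbidity read first as A600. ThT fluorescence (ex 450/em 480 nm) read every 10 min for 72 h at 40° C, with 5 min shaking before each read; fibril formation = average emission.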

SCTR = SCTR (Homo sapiens, UniProt P47872); test: hSCTR potency, cAMP accumulation in CHO-K1 cells stably overexpressing hSCTR; assay type: cell-based; set-up: alternatively Euroscreen ES-712-AF; FAST-0161L; host or cells: CHO-K1; settings: cAMP accumulation
Chain of SCTR (P47872 23-440): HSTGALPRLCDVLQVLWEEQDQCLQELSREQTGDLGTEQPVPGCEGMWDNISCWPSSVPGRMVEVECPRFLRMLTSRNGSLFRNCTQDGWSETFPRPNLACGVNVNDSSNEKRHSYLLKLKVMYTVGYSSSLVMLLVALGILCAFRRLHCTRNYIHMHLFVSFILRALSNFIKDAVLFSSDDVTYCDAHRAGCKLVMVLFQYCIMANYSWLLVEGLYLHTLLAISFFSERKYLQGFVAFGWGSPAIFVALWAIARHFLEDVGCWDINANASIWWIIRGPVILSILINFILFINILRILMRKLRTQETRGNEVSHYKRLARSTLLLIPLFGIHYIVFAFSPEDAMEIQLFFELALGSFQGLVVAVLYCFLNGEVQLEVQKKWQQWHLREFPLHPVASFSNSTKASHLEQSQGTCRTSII
Method in brief: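 Read-out is TR-FRET cAMP detection, recorded one hour after reagent addition, in CHO-K1 cells stably overexpressing hSCTR. Cells in DPBS containing 0.05% casein and 0.5 mM IBMX are exposed to graded peptide doses for 30 min at room temperature, with human secretin as reference agonist.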

GLP1R = GLP1R (Homo sapiens, UniProt P43220); test: hGLP1R potency, cAMP accumulation in CHO-K1 cells stably overexpressing hGLP1R; assay type: cell-based; set-up: host or cells: CHO-K1; settings: for EC50: cAMP accumulation; for SCTR EC50/GLP1R EC50 ratio: cAMP accumulation in CHO-K1 cells; for Selectivity: SCTR EC50/GLP1R EC50 ratio
Chain of GLP1R (P43220 24-463): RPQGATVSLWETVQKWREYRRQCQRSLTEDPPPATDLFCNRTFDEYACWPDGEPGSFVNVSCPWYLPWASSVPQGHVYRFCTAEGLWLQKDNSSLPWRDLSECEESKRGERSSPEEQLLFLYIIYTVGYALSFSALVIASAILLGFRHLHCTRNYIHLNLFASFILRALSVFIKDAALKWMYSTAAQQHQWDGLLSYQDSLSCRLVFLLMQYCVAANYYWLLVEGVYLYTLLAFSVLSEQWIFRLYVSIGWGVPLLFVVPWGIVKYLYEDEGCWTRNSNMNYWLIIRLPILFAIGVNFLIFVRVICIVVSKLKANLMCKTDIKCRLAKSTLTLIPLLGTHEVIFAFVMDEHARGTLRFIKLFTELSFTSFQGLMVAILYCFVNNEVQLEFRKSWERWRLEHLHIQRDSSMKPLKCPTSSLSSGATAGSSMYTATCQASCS
Method in brief: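 Thawed cells go straight into buffer containing 0.5 mM IBMX and 0.05% casein, get graded compound doses for 30 min at room temperature, and are then assayed for accumulated cAMP by time-resolved FRET. Human GLP-1(7-36) serves as positive control; EC50 is derived by nonlinear regression.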

[2] = Fibril formation of crude library peptides (Thioflavin T); assay type: physicochemical; set-up: key: average ThT fluorescence emission at 480 nm (ex 450 nm), raw units; settings: Physical stability of peptides
Method in brief: as §1

[3] = CHO-K1 cells overexpressing hSCTR, read-out: hSCTR pEC50 (converted)
[4] = CHO-K1 cells overexpressing hGLP1R, read-out: hGLP1R pEC50 (converted)
[5] = selectivity for hGLP1R over hSCTR
[6] = CHO-K1 cells overexpressing hSCTR, read-out: pEC50 hSCTR (converted)
[7] = CHO-K1 cells overexpressing hGLP1R, read-out: pEC50 hGLPR1 (converted)

Compound | Turbidity (pH 7) [1] | EC50 (SCTR; [3]) | EC50 (GLP1R; [4]) | SCTR EC50/GLP1R EC50 ratio (GLP1R; [5]) | Fibril formation [2] | EC50 (SCTR; [6]) | Selectivity (GLP1R) | EC50 (GLP1R; [7]) | EC50 (SCTR; CHO-K1 cells stably overexpressing hSCTR, read-out: hSCTR potency (pEC50) (converted)) | EC50 (GLP1R; CHO-K1 cells stably overexpressing hGLP1R, read-out: hGLP1R potency (pEC50) (converted)) | SCTR EC50/GLP1R EC50 ratio (GLP1R; selectivity ratio, hSCTR vs hGLP1R)
CC(C)C[C@H](NC(=O)[C@H](Cc1ccccc1)NC(=O)[C@H](CCCNC(=N)N)NC(=O)[C@H](CCC(N)=O)NC(=O)[C@H](CC(C)C)NC(=O)C(C)(C)NC(=O)[C@H](C)NC(=O)[C@H](CCC(=O)O)NC(=O)[C@H](CCC(=O)O)NC(=O)[C@H](CCCCNC(=O)COCCOCCNC(=O)COCCOCCNC(=O)CC[C@H](NC(=O)CCCCCCCCCCCCCCCCCCC(=O)O)C(=O)O)NC(=O)[C@H](CC(C)C)NC(=O)[C@H](Cc1ccc(O)cc1)NC(=O)[C@H](CO)NC(=O)C(C)(C)NC(=O)[C@H](CC(=O)O)NC(=O)[C@H](CO)NC(=O)[C@@H](NC(=O)[C@H](Cc1ccccc1)NC(=O)[C@@H](NC(=O)CNC(=O)[C@H](CCC(=O)O)NC(=O)C(C)(C)NC(=O)[C@@H](N)Cc1c[nH]cn1)[C@@H](C)O)[C@@H](C)O)C(=O)N[C@@H](CCC(=O)O)C(=O)N[C@@H](Cc1c[nH]cn1)C(=O)N[C@@H](CC(C)C)C(=O)N[C@H](C(N)=O)C(C)C [compound 103] (H-H[Aib]EGTFTSD[Aib]SYLK([AEEA-AEEA-γGlu-C20 diacid])EEA[Aib]LQRFLEHLV-NH2) | 0.08 | 10000 nM | 0.00794 nM | 1181272 | 3646 |  |  |  |  |  | 
CC(C)C[C@H](NC(=O)[C@H](CCC(=O)O)NC(=O)[C@H](CCCCNC(=O)COCCOCCNC(=O)COCCOCCNC(=O)CC[C@H](NC(=O)CCCCCCCCCCCCCCCCCCC(=O)O)C(=O)O)NC(=O)[C@H](CC(C)C)NC(=O)[C@H](CCCNC(=N)N)NC(=O)[C@H](CO)NC(=O)[C@@H](NC(=O)[C@H](CC(=O)O)NC(=O)[C@H](CO)NC(=O)[C@@H](NC(=O)[C@H](Cc1ccccc1)NC(=O)[C@@H](NC(=O)CNC(=O)[C@H](CCC(=O)O)NC(=O)C(C)(C)NC(=O)[C@@H](N)Cc1c[nH]cn1)[C@@H](C)O)[C@@H](C)O)C(C)C)C(=O)N[C@@H](C)C(=O)N[C@@H](C)C(=O)N[C@@H](CCC(N)=O)C(=O)N[C@@H](CCC(N)=O)C(=O)N[C@@H](CCCNC(=N)N)C(=O)N[C@@H](Cc1ccccc1)C(=O)N[C@@H](CC(C)C)C(=O)N[C@@H](CCC(=O)O)C(=O)N[C@@H](Cc1c[nH]cn1)C(=O)N[C@@H](CC(C)C)C(=O)N[C@H](C(N)=O)C(C)C [compound 3] (H-H[Aib]EGTFTSDVSRLK([AEEA-AEEA-γGlu-C20 diacid])ELAAQQRFLEHLV-NH2) | 0.08 |  |  |  | 13795 | 79.4 nM | 4851 | 0.0158 nM |  |  | 
CC(C)C[C@H](NC(=O)[C@H](Cc1ccccc1)NC(=O)[C@H](CCCNC(=N)N)NC(=O)[C@H](CCC(N)=O)NC(=O)C(C)(C)NC(=O)[C@H](C)NC(=O)[C@H](C)NC(=O)[C@@H](NC(=O)[C@H](CCC(=O)O)NC(=O)[C@H](CCCCNC(=O)COCCOCCNC(=O)COCCOCCNC(=O)CC[C@H](NC(=O)CCCCCCCCCCCCCCCCCCC(=O)O)C(=O)O)NC(=O)[C@H](CC(C)C)NC(=O)[C@H](CCCNC(=N)N)NC(=O)[C@H](CO)NC(=O)[C@@H](NC(=O)[C@H](CC(=O)O)NC(=O)[C@H](CO)NC(=O)[C@@H](NC(=O)[C@H](Cc1ccccc1)NC(=O)[C@@H](NC(=O)CNC(=O)[C@H](CCC(=O)O)NC(=O)C(C)(C)NC(=O)[C@@H](N)Cc1c[nH]cn1)[C@@H](C)O)[C@@H](C)O)C(C)C)[C@@H](C)O)C(=O)N[C@@H](CCC(=O)O)C(=O)N[C@@H](Cc1c[nH]cn1)C(=O)N[C@@H](CC(C)C)C(=O)N[C@H](C(N)=O)C(C)C [compound 85] (H-H[Aib]EGTFTSDVSRLK([AEEA-AEEA-γGlu-C20 diacid])ETAA[Aib]QRFLEHLV-NH2) | 0.09 | 1580 nM | 0.126 nM | 12682 | 19223 |  |  |  |  |  | 
CC(C)C[C@H](NC(=O)[C@H](Cc1ccccc1)NC(=O)[C@H](CCCNC(=N)N)NC(=O)[C@H](CCC(N)=O)NC(=O)[C@H](CCC(N)=O)NC(=O)[C@H](C)NC(=O)[C@H](C)NC(=O)[C@@H](NC(=O)[C@H](CCC(=O)O)NC(=O)[C@H](CCCCNC(=O)COCCOCCNC(=O)COCCOCCNC(=O)CC[C@H](NC(=O)CCCCCCCCCCCCCCCCCCC(=O)O)C(=O)O)NC(=O)[C@H](CC(C)C)NC(=O)[C@H](Cc1ccc(O)cc1)NC(=O)[C@H](CO)NC(=O)[C@@H](NC(=O)[C@H](CC(=O)O)NC(=O)[C@H](CO)NC(=O)[C@@H](NC(=O)[C@H](Cc1ccccc1)NC(=O)[C@@H](NC(=O)CNC(=O)[C@H](CCC(=O)O)NC(=O)C(C)(C)NC(=O)[C@@H](N)Cc1c[nH]cn1)[C@@H](C)O)[C@@H](C)O)C(C)C)[C@@H](C)O)C(=O)N[C@@H](CCC(=O)O)C(=O)N[C@@H](Cc1c[nH]cn1)C(=O)N[C@@H](CC(C)C)C(=O)N[C@H](C(N)=O)C(C)C [compound 58] (H-H[Aib]EGTFTSDVSYLK([AEEA-AEEA-γGlu-C20 diacid])ETAAQQRFLEHLV-NH2) | 0.08 |  |  |  | 22040 | 1000 nM | 35408 | 0.0251 nM |  |  | 
CC[C@H](C)[C@H](NC(=O)[C@H](Cc1ccccc1)NC(=O)[C@H](CCCNC(=N)N)NC(=O)[C@H](CCC(N)=O)NC(=O)[C@H](CC(C)C)NC(=O)[C@H](C)NC(=O)[C@H](C)NC(=O)CNC(=O)[C@H](CCC(=O)O)NC(=O)[C@H](CC(C)C)NC(=O)[C@H](CC(C)C)NC(=O)CNC(=O)[C@H](CO)NC(=O)[C@@H](NC(=O)[C@H](CC(=O)O)NC(=O)[C@H](CO)NC(=O)[C@@H](NC(=O)[C@H](Cc1ccccc1)NC(=O)[C@@H](NC(=O)CNC(=O)[C@H](CCC(=O)O)NC(=O)C(C)(C)NC(=O)[C@@H](N)Cc1c[nH]cn1)[C@@H](C)O)[C@@H](C)O)C(C)C)C(=O)N[C@@H](CCC(N)=O)C(=O)N[C@@H](Cc1c[nH]c2ccccc12)C(=O)N[C@@H](CC(C)C)C(=O)N[C@H](C(N)=O)C(C)C [compound 182] (H-H[Aib]EGTFTSDVSGLLEGAALQRFIQWLV-NH2) | 0.40 | 158 nM | 0.0501 nM | 2754 | 253106 |  |  |  |  |  | 
CC(C)C[C@H](NC(=O)[C@H](Cc1ccccc1)NC(=O)[C@H](CCCNC(=N)N)NC(=O)[C@H](CCC(N)=O)NC(=O)[C@H](CO)NC(=O)C(C)(C)NC(=O)[C@H](C)NC(=O)[C@H](CCC(=O)O)NC(=O)[C@H](CCC(=O)O)NC(=O)[C@H](CCCCNC(=O)COCCOCCNC(=O)COCCOCCNC(=O)CC[C@H](NC(=O)CCCCCCCCCCCCCCCCCCC(=O)O)C(=O)O)NC(=O)[C@H](CC(C)C)NC(=O)[C@H](Cc1ccc(O)cc1)NC(=O)[C@H](CO)NC(=O)[C@@H](NC(=O)[C@H](CC(=O)O)NC(=O)[C@H](CO)NC(=O)[C@@H](NC(=O)[C@H](Cc1ccccc1)NC(=O)[C@@H](NC(=O)CNC(=O)[C@H](CCC(=O)O)NC(=O)C(C)(C)NC(=O)[C@@H](N)Cc1c[nH]cn1)[C@@H](C)O)[C@@H](C)O)C(C)C)C(=O)N[C@@H](CCC(=O)O)C(=O)N[C@@H](Cc1c[nH]cn1)C(=O)N[C@@H](CC(C)C)C(=O)N[C@H](C(N)=O)C(C)C [compound 134] (H-H[Aib]EGTFTSDVSYLK([AEEA-AEEA-γGlu-C20 diacid])EEA[Aib]SQRFLEHLV-NH2) | 0.08 | 2510 nM | 0.00794 nM | 303145 | 3061 |  |  |  |  |  | 
CC[C@H](C)[C@H](NC(=O)[C@H](Cc1ccccc1)NC(=O)[C@H](CCCNC(=N)N)NC(=O)[C@H](CCC(N)=O)NC(=O)[C@H](CC(C)C)NC(=O)[C@H](C)NC(=O)[C@H](C)NC(=O)CNC(=O)[C@H](CCC(=O)O)NC(=O)[C@H](CC(C)C)NC(=O)[C@H](CC(C)C)NC(=O)[C@H](Cc1ccccc1)NC(=O)[C@H](CO)NC(=O)[C@H](Cc1c[nH]c2ccccc12)NC(=O)[C@H](CC(=O)O)NC(=O)[C@H](CO)NC(=O)[C@@H](NC(=O)[C@H](Cc1ccccc1)NC(=O)[C@@H](NC(=O)CNC(=O)[C@H](CCC(=O)O)NC(=O)C(C)(C)NC(=O)[C@@H](N)Cc1c[nH]cn1)[C@@H](C)O)[C@@H](C)O)C(=O)N[C@@H](CCC(N)=O)C(=O)N[C@@H](Cc1c[nH]c2ccccc12)C(=O)N[C@@H](CC(C)C)C(=O)N[C@H](C(N)=O)C(C)C [compound 190] (H-H[Aib]EGTFTSDWSFLLEGAALQRFIQWLV-NH2) | 0.61 |  |  |  | 260000 |  |  |  | 100 nM | 0.0631 nM | 1844
